Laboratory results as given in publication PMC6130795 (ACS Omega, 2018).

Target: T1, CDC25B (Homo sapiens, UniProt P30305)
T1 sequence (P30305 431-538 limits assumed): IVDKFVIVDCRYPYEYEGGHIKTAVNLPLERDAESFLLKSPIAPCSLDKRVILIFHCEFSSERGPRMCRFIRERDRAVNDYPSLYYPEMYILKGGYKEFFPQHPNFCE
Assay: In vitro CDC25B enzyme inhibition assay
Format: biochemical

[Na+].[Na+].[Na+].[O]=[V]([O-])([O-])[O-] [Na3VO4]
CDC25B IC50: 0.13 ± 0.02 µg/mL
